Here are results for three compounds from patent US20230181582A1, “COMPOSITIONS AND METHODS FOR TREATING LUNG INJURIES ASSOCIATED WITH VIRAL INFECTIONS” (Qx Therapeutics Inc., priority 2020, published 2023).

Data set [1] relates to mouse coronavirus (MHV-1) induced acute lung injury model. The data set can be described thus: Pulmonary permeability (FITC-albumin in BAL) in mouse coronavirus (MHV-1) induced acute lung injury model. Type of data set: in vivo, A/J mice.
For data set [2] the following is noted: reported; cited from earlier work.
In a further data set the test system is neutrophils. Conditions: cited from earlier work.
A further data set concerns patients. Conditions: cited from earlier work.
In data set [3] the test system is MAP3K2/MAP3K3. The data set can be described thus: Inhibition of MAP3K2/MAP3K3-mediated phosphorylation of substrates (p47phox, MEK5). The data set is classed as biochemical.
The subject of data set [4] is mouse ALI models. The data set is classed as in vivo.
For data set [5] the following is noted: reported; cited from earlier work. The source holds these as a separate data set.
For data set [6], the system named is mouse coronavirus (MHV-1) induced acute lung injury model. The data set can be described thus: Survival and body weight loss in mouse coronavirus (MHV-1) induced acute lung injury model. Type of data set: in vivo, A/J mice. Conditions: 3 mg/kgbw once daily for 5 days since 24 hr after virus inoculation.
For data set [7], the system named is MAP3K2/MAP3K3. Conditions: cited from earlier work; for inhibition of MAP3K2/MAP3K3-mediated phosphorylation of p47phox: substrate p47phox.
The subject of data set [8] is mouse ALI models. As to conditions: cited from earlier work.

In general, half-life refers to the time in which the quantity being followed falls by half.

Molecules are shown by their SMILES.

`Cc1ccc(Nc2nccc(N(C)c3ccc4c(C)n(C)nc4c3)n2)cc1S(N)(=O)=O` [pazopanib, 5-({4-[(2,3-Dimethyl-2H-indazol-6-yl)methylamino]pyrimidin-2-yl}amino)-2-methylbenzenesulfonamide]: the pulmonary permeability result in data set [1] (2 doses at 3 mg/kgbw retro-orbital (24, 33 hr after 6000 PFU MHV-1), FIG. 2) is “significantly reduce”; in data set [1] (3 doses at 3 mg/kgbw retro-orbital (6, 21, 32 hr after 5000 PFU MHV-1), FIG. 1), “significantly reduce”; in data set [1] (one dose 3 mg/kgbw at 24 hr after virus inoculation, FIG. 3), “significantly reduce”; in data set [1] (one dose 3 mg/kgbw at 48 hr after virus inoculation, FIG. 4), “significantly reduce”; in data set [1] (one dose 3 mg/kgbw at 72 hr after virus inoculation, FIG. 5), “negligible effect”. In addition, the bioavailability in data set [2] is on record as 14-21%. Also, the half-life in data set [2] is 30.9 to 31.9 h. Besides, in the data set on neutrophils, the ROS levels result is recorded as “elevates ROS levels”. Also, in the data set with patients (clinical trials), the “ILD/pneumonitis reported in patients in the clinical trials” value is 0.1%. Also, the “patients who developed a pneumothorax” value in the data set with patients (randomized RCC trial) is “[t]wo of 290”. For the same compound, the “pneumothorax occurrence in patients treated” value in the data set with patients (randomized STS trial (8/240)) was 3%. Further, in the data set on MAP3K2/MAP3K3 [3], the “affinity as p47phox substrate-specific inhibitor for MAP3K2 and 3” value is reported as “low nanomolar”. Also, in the data set on mouse ALI models [4] (acid and LPS ALI models), the “mortality rate in acid and LPS models” value was “impact mortality rate”. Further, in the data set with mouse ALI models [4] (acid and LPS ALI models, prophylactic), the “prophylactic effect on lung injury in acid and LPS models” value is reported as “prophylactic effect”. Besides, the “ameliorating ALI in the two mouse ALI/ARDS models” value in the data set on mouse ALI models [4] (two mouse ALI/ARDS models, dependent on MAP3K2/3 and ROS production) is “effective in ameliorating ALI”. The protein binding in data set [5] is on record as more than 99.5%. Besides, in data set [6] (FIG. 6), the survival rate entry is reported as “does not affect”. In addition, the body weight loss result in data set [6] (FIG. 7) is “does not affect”. Further, the “inhibition of other substrates of MAP3K2/MAP3K3 such as MEK5” value in the data set on MAP3K2/MAP3K3 [7] (substrate MEK5) is “μM levels”. The “inhibition of MAP3K2/MAP3K3-mediated phosphorylation of p47phox” value in the data set with MAP3K2/MAP3K3 [7] is “low nM levels”.
In the case of `COC(=O)c1ccc2c(c1)NC(=O)/C2=C(\Nc1ccc(N(C)C(=O)CN2CCN(C)CC2)cc1)c1ccccc1` [nintedanib, Methyl (3Z)-3-{[(4-{methyl[(4-methylpiperazin-1-yl)acetyl]amino}phenyl)amino](phenyl)methylidene}-2-oxo-2,3-dihydro-1H-indole-6-carboxylate], the half-life in data set [2] is 10 to 15 h. For the same compound, the “reduction of ALI in mouse models” value in the data set on mouse ALI models [8] is listed as “reduce ALI”. For the same compound, the protein binding in data set [5] is given as 97.8%. Moreover, the “inhibition of MAP3K2/MAP3K3-mediated phosphorylation of p47phox” value with MAP3K2/MAP3K3 [7] is “also inhibits”.
In the case of `Cc1ccc(NC(=O)c2ccc(CN3CCN(C)CC3)cc2)cc1Nc1nccc(-c2cccnc2)n1` [imatinib], the “inhibition of MAP3K2/MAP3K3-mediated phosphorylation of p47phox” value with MAP3K2/MAP3K3 [7] is “do not inhibit”.
